From patent US11142524B2, “Substituted-3H-imidazo[4,5-c]pyridine and 1H-pyrrolo[2,3-c]pyridine series of novel Ectonucleotide Pyrophosphatase/Phosphodiesterase-1 (ENPP1) and stimulator for interferon genes (STING) modulators as cancer immunotherapeutics” (Stingray Therapeutics, Inc., priority 2018, dated 2021)

What was measured:
[1] = tested on: ENPP; assay: Selectivity
[2] = molecular target: T1, ENPP1 protein (Homo sapiens (Human), UniProt P22413); assay: ENPP1 enzymatic assay with TMP substrate (FIG. 8); format: biochemical; conditions: 5.0 ng ENPP1, 150 μM TMP substrate
Description: FIG. 8 depicts results of a similar experiment. 5.0 ng of ENPP1 protein exposed to increasing doses of inhibitor (compound 78 or compound 107-02) for 10 minutes in solution, followed by the addition of 150 μM of TMP substrate. The assay was then incubated for 20 minutes and then read at 405 nm on the envision plate reader.
Target sequence in this assay (P22413 whole entry, looked up): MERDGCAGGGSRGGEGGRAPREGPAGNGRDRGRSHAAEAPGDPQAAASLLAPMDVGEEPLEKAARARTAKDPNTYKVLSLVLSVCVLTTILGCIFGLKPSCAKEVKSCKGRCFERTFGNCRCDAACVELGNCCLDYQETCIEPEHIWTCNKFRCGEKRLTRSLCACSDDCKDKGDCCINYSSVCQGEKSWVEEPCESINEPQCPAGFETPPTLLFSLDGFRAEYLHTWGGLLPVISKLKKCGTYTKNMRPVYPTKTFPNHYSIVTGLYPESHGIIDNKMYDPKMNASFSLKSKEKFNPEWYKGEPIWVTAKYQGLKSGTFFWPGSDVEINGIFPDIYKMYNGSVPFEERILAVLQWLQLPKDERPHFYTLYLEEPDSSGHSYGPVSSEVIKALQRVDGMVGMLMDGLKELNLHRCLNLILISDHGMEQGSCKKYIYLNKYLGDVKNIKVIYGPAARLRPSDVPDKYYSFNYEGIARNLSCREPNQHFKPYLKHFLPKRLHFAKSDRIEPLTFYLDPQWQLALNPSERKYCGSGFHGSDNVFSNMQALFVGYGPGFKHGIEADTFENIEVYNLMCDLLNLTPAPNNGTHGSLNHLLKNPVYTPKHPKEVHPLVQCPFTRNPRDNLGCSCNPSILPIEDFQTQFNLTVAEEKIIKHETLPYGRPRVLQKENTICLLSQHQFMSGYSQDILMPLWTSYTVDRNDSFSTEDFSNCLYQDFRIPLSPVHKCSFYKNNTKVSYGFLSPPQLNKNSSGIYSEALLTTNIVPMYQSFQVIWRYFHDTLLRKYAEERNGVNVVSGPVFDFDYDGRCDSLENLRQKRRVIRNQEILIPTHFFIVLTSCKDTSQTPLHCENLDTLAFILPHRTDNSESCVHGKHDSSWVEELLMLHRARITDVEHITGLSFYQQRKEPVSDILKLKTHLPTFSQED

[3] = tested on: Saos-2 Cells; assay: ENPP1 Mineralization Assay; format: cell-based; conditions: FIG. 9, mineralization components for 3 days
Description: Saos-2 Cells (ATCC CAT #HTB-85). Culture Medium. 24-well Tissue Culture Plate. Ascorbic Acid, 5 mg/mL (100×). β-Glycerophosphate, 1M (100×). Phosphate Buffered Saline. Alizarin Red, 40 mM pH 4.2. 70% Ethanol. Dye Extraction Reagent, 10% Methanol+10% Acetic Acid
Saos-2 cells were plated at a density of 1.5×10^6 cells/well and allowed to grow to 100% confluency over the following 1-2 days. Once completely confluent, the media was replaced with fresh media supplemented with 1× ascorbic acid, 1× β-glycerophosphate, and varying concentrations of ENPP1 inhibitor (if applicable). The addition of the mineralization components was considered Day 1. On Day 3, the media was gently aspirated with no wash followed by the addition of fresh media, mineralization components, and ENPP1 inhibitor (if applicable). On day 5, the media was gently aspirated and the cells were washed twice with PBS. The cells were then fixed with ice cold 70% ethanol for 1 hour at 4° C. Cells were washed once with PBS and stained with Alizarin Red for 30 minutes at room temperature with gentle rotation. Stained cells were washed three times with water for 10 minutes at room temperature with gentle rotation. After imaging cells, dye extraction reagent was added to each well and incubated for 30 minutes at room temperature. Alizarin red was quantified by measuring absorbance at a wavelength of 405 nm using the Envision.
FIG. 9 depicts a picture of results of a similar SAOS-2 mineralization assay. SAOS-2 cell were cultured in the presence and absence of ENPP1 inhibitor (compound 78, 107-02 or 108) and exposed to mineralization components for 3 days.

[4] = tested on: Caco-2; assay: Caco-2 permeability; format: in vitro ADME
[5] = tested on: IRF-3 reporter in THP1 WT and STING knockout cells; assay: THP1 IRF-3 Reporter Assay; format: cell-based; conditions: 10 μM, primed with 2′3′cGAMP, 24 hours (FIG. 10) or 72 hours (FIG. 11)
Description: FIGS. 10 and 11 depict results of a THP1 IRF-3 Reporter Assay. THP1 WT and STING knockout cells were primed with 2′3′cGAMP and treated with 10 μM ENPP1 inhibitors for 24 hours (FIG. 10) or 72 hours (FIG. 11). Media collected to determine induction of IRF-3 reporter using luminescence reagent QuantiLuc.

[6] = tested on: KPC mouse model of PDAC; assay: Tumor growth in KPC mouse model of PDAC; format: in vivo; conditions: once daily via IP at 20 mg/kg, FIG. 15B
Text: FIG. 15A a pharmacokinetic (PK) plasma concentration chart for compound 107-02. FIG. 15B is a tumor growth inhibition curve for compound 107-02 following in vivo administration. […] FIGS. 15C and 15D are flowcytometric charts of excised tumors following administration of compound 107-02. At the end of the study, tumors were excised and analyzed for T-cells and tumor-associated macrophages using flow cytometry. *p<0.05.

[7] = molecular target: T1, ENPP1 protein; assay: ENPP1 Thermal Shift Assay (Example 1); format: binding
Description: Assay Buffer (1 mM CaCl2, 0.2 mM ZnCl2, 50 mM Tris, pH 9.0) 5000×SYPRO Orange (ThermoFisher cat #S6651) 384-well PCR Plates
Each drug was prepared as a 10× solution in the assay buffer and SYPRO Orange was diluted to 10× concentration in water. Wells were set up in duplicate in a 384-well PCR plate as follows: 14 μL assay buffer, 2 μL ENPP1 Inhibitor or DMSO, 2 μL (0.5 μg) ENPP1 protein. Each well was mixed and incubated on ice for 5 minutes. Post incubation, 2 μL of SYPRO Orange was mixed into each well and followed by a gentle centrifugation. The protein melt reaction was run using ViiA7 software with temperatures beginning at 25° C. and increasing by 0.05° C./s to the maximum temperature of 99° C.
In a 384-well plate, 1.0 μg of ENPP1 protein incubated with 100 μM of the corresponding drug for 5 minutes. Each well exposed to increasing temperatures to determine an unfolding temperature of the protein.
Target sequence in this assay (P22413 whole entry, looked up, change not shown): as the sequence (P22413 whole entry, looked up) above

[8] = Mouse PK Profile; format: in vivo
[9] = Physicochemical profile of 107-02 (PSA, Log P, Log S, solubility)
[10] = molecular target: PgP (Homo sapiens (Human), UniProt P08183); assay: PgP Inhibition; format: in vitro ADME
[11] = molecular target: T2, Recombinant Human ENPP-1 Protein (purified in-house) (Homo sapiens (Human), UniProt P22413); assay: ENPP1 Assay (ATP), Example 2; format: biochemical; conditions: Table 5, ATP substrate; read-out: ENPP1 (IC50 μM) ATP
Description: Assay Buffer: 1 mM CaCl2, 0.2 mM ZnCl2, 50 mM Tris, pH 9.0. Substrate: 100 μM Adenosine 5′-triphosphate disodium salt hydrate (Promega: V703A)—Assay Conc.: 10 μM. Enzyme: 1 ng/μL Recombinant Human ENPP-1 Protein (purified in-house)—Assay Conc.: 5 ng/well of DMSO in 96-well white assay plates. Cell Titer Glo (Promega, cat #G7572).
A ten point serial dilution of drugs was prepared in 10× in assay buffer with the final assay concentrations starting at 10 μM, 3 μM, 1 μM, 0.3 μM . . . 0 μM. A dilution of DMSO was included as a control. The assay plate was set up as follows with each well in duplicate: 75 μL assay buffer+10 μL ENPP1 inhibitor or DMSO Dilutions+10 μL Substrate+5 μL Enzyme (5 ng). Both the enzyme and substrate were added to opposite sides of the well to ensure that there was no interaction until all wells had both components. The plate was then centrifuged gently for 10 seconds, followed by incubation at RT for 20 minutes. To detect levels of ATP, Cell Titer Glo was added 1:1 to each well and incubated for 10 minutes. The reaction was quantified by measuring luminescence using the Envision Plate Reader.

[12] = molecular target: T2, Recombinant Human ENPP-1 Protein (purified in-house); assay: ENPP1 Assay (TMP), Example 2; format: biochemical; conditions: Table 5, TMP substrate; read-out: ENPP1 (IC50 μM) TMP
Description: Enzyme: 1 ng/μL Recombinant Human ENPP-1 Protein (purified in-house)—Assay Conc.: 5 ng/well of DMSO in 96-well clear assay plates.
A ten point serial dilution of drugs was prepared in 10× in assay buffer with the final assay concentrations starting at 10 μM, 3 μM, 1 μM, 0.3 μM . . . 0 μM. A dilution of DMSO was included as a control. The assay plate was set up as follows with each well in duplicate: 75 μL assay buffer+10 μL ENPP1 inhibitor or DMSO Dilutions+10 μL Substrate+5 μL Enzyme (5 ng). Both the enzyme and substrate were added to opposite sides of the well to ensure that there was no interaction until all wells had both components. The plate was then centrifuged gently for 10 seconds, followed by an incubation at 37° C. for 45 minutes. The reaction was quantified by measuring absorbance at 405 nm using the Envision Plate Reader.

T2 sequence (P22413 whole entry, looked up): as above
PgP, sequence (P08183 whole entry): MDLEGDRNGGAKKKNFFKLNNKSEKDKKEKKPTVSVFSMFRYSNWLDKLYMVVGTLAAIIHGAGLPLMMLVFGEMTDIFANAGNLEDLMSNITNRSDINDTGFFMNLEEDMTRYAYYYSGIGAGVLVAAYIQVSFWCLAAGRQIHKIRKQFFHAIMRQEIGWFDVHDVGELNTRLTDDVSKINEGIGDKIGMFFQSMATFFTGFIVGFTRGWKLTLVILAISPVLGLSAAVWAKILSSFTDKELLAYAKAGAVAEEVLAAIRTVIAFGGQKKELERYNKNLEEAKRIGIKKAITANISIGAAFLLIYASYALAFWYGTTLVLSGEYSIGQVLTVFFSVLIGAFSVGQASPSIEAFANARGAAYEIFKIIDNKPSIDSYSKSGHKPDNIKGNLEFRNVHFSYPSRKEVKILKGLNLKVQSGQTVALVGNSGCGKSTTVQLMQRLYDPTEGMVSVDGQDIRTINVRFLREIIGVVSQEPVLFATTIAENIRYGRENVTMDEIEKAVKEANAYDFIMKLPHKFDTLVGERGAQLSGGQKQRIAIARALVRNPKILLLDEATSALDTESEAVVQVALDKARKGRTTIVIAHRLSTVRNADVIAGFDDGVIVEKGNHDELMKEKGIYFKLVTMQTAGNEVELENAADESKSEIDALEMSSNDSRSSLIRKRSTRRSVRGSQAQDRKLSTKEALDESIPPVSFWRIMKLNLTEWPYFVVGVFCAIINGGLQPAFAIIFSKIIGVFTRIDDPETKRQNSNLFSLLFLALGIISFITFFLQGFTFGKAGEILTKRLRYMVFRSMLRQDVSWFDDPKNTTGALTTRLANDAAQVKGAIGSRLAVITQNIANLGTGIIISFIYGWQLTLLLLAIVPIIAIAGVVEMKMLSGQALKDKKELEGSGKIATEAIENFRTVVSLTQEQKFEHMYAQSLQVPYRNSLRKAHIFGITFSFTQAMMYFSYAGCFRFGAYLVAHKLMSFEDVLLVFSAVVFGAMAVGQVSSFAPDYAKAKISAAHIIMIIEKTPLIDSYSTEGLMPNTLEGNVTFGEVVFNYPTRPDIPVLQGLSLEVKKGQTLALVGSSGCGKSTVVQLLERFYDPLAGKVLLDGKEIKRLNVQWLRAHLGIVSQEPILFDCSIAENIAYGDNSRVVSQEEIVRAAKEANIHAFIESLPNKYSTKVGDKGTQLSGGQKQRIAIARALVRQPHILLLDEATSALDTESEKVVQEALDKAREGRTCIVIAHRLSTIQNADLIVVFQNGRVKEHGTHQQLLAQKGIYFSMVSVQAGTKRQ

COc1ccc(NC(=O)CSc2nc3c(C)c(C#N)ncc3[nH]2)cc1OP(=O)(O)O [Compound 107-02, 5-(2-((6-Cyano-7-methyl-3H-imidazo[4,5-c]pyridin-2-yl)thio)acetamido)-2-methoxyphenyl dihydrogen phosphate]
Selectivity [1]: Highly selective ENPPi
enzymatic activity [2]: significant decrease
total mineralization [3]: significant decrease
Caco2 ([4]; first entry (Caco2)): −5.28
Caco-2 ([4]; second entry (Caco-2)): −4.867
IRF-3 response [5]: significant increase
tumor growth of KPC mouse model of PDAC [6]: inhibits tumor growth
Tm (° C.) ([7]; Table 2, FIG. 7, 100 μM drug, 1.0 μg ENPP1, NT 60.05): 63.89 °C
ΔTm at 100 µM ([7]; read-out: ΔTm (° C.)): 3.84 °C
Mouse PK Profile CO [8]: 2840.69 ng/mL
AUC(0-t) ([8]; plasma): 1.64 µg·h/mL
half-life ([8]; plasma): 1.83 h
AUC(0-inf) ([8]; plasma, read-out: AUCINF obs): 1.65 µg·h/mL
clearance ([8]; plasma, read-out: CL obs): 1.33 L/h/kg
solubility [9]: 0.64 mg/mL
logP ([9]; pH 7.4): 0.009
PgP Inhibition [10]: Negative
IC50 [11]: 0.211 µM
IC50 [12]: 0.742 µM
